{"source": "paper PMC8456496", "about": "(2021)", "experiment_in_all_cases": "fluorescence light-switch", "key": {"[1]": {"tested_on": "poly AT (DNA, duplex) ATATATATATATATATATAT", "settings": "50 mM NaCl, 10 μM complex, 50 μM bp DNA"}, "[2]": {"tested_on": "poly T (DNA, single strand) TTTTTTTTTTTTTTTTTTTTT", "settings": "50 mM NaCl; 5 mM Tris-HCl pH 7.0, 1% DMSO, RT; 10 μM complex, 50 μM DNA; emission near 600 nm"}, "[3]": {"tested_on": "poly A poly T (DNA, duplex) AAAAAAAAAAAAAAAAAAAAA/TTTTTTTTTTTTTTTTTTTTT", "settings": "50 mM NaCl; 5 mM Tris-HCl pH 7.0, 1% DMSO, RT; 10 μM complex, 50 μM bp DNA; emission near 600 nm"}}}
{"smiles": "CN(C)Cc1[c-]cccc1.[Pt+2].c1ccc2nc3c4cccnc4c4ncccc4c3nc2c1", "values": [{"measurement": "binding", "setting": "[1]; 5 mM Tris-HCl pH 7.0, RT, emission at 431 nm", "value": "yes"}]}
{"smiles": "CN(C)Cc1[c-]cccc1.[Pt+2].c1ccc2cc3nc4c5cccnc5c5ncccc5c4nc3cc2c1", "values": [{"measurement": "binding", "setting": "[1]; 5 mM Tris-HCl pH 7.0, 1% DMSO, RT, excimer emission at 599 nm", "value": "yes"}, {"measurement": "binding", "setting": "[2]", "value": "yes"}, {"measurement": "binding", "setting": "[3]", "value": "yes"}]}
{"smiles": "CN(C)Cc1[c-]cccc1.[Pt+2].c1cnc2c(c1)c1nccnc1c1cccnc12", "values": [{"measurement": "binding", "setting": "[1]; 5 mM Tris-HCl pH 7.0, RT, emission at 438 nm", "value": "yes"}]}
